From article PMC6432920 (Journal of medicinal chemistry, 2017)
Read-outs that look alike come from different tables or passages of the source.

Key:
[1] = human liver microsomes; cited from earlier work
[2] = one dose treatment, nude mice bearing MCF-7 xenograft tumors; cited from earlier work

With `COc1ccc2c(c1)NC(=O)CN2c1nc(C)nc2ccccc12` [Compound 2, 7-Methoxy-4-(2-methylquinazolin-4-yl)-3,4-dihydroquinoxalin-2(1H)-one] the body weight end (0.25 mg/kg iv Q5D × 4) was 25.96 ± 1.54 g, the body weight start (0.25 mg/kg iv Q5D × 4) was 22.44 ± 1.27 g and the body weight end (0.5 mg/kg iv Q5D × 4) was 23.85 ± 1.57 g. It also gave a body weight start (0.5 mg/kg iv Q5D × 4) of 22.28 ± 1.33 g, a body weight end (1.0 mg/kg iv Q5D × 4) of 20.50 ± 3.27 g and a body weight start (1.0 mg/kg iv Q5D × 4) of 22.13 ± 1.24 g. The signs of toxicity (mice, 1.0 mg/kg) was “without obvious signs of toxicity”, the “metabolic stability in vitro t1/2” value [1] was 55 min and the lethal dose [2] was 4 mg/kg.
